Numbers after ± are expanded uncertainties.
Experiments:
[1] = xn = mol fraction of the nth substance listed; conditions: 298.15 K, 101.33 kPa, Liquid
[2] = excess molar enthalpy (molar enthalpy of mixing); xn = mol fraction of the nth substance listed; conditions: 298.15 K, 101.33 kPa, Liquid
[3] = 298.15 K; 101.33 kPa; Liquid

## COC(F)(F)C(F)(F)C(F)(F)C(F)(F)F [1-methoxy-nonafluorobutane] + COCCO
[1]; x1 = 0.00553
  mass density: 965.99 ± 0.23 kg/m3
[1]; x1 = 0.01007
  mass density: 970.85 ± 0.23 kg/m3
[1]; x1 = 0.02663
  mass density: 988.18 ± 0.19 kg/m3
[1]; x1 = 0.02992
  mass density: 991.62 ± 0.19 kg/m3
[1]; x1 = 0.03967
  mass density: 1001.54 ± 0.18 kg/m3
[1]; x1 = 0.04976
  mass density: 1011.78 ± 0.2 kg/m3
[1]; x1 = 0.05995
  mass density: 1021.9 ± 0.22 kg/m3
[1]; x1 = 0.06979
  mass density: 1031.53 ± 0.24 kg/m3
[1]; x1 = 0.07991
  mass density: 1041.28 ± 0.26 kg/m3
[1]; x1 = 0.08992
  mass density: 1050.63 ± 0.28 kg/m3
[1]; x1 = 0.09992
  mass density: 1059.88 ± 0.3 kg/m3
[1]; x1 = 0.1999
  mass density: 1144.03 ± 0.48 kg/m3
[1]; x1 = 0.2999
  mass density: 1215.05 ± 0.63 kg/m3
[1]; x1 = 0.4
  mass density: 1275.68 ± 0.75 kg/m3
[1]; x1 = 0.5001
  mass density: 1328.23 ± 0.86 kg/m3
[1]; x1 = 0.5997
  mass density: 1373.83 ± 0.93 kg/m3
[1]; x1 = 0.7001
  mass density: 1414.55 ± 1 kg/m3
[1]; x1 = 0.8005
  mass density: 1451 ± 1.1 kg/m3
[1]; x1 = 0.8997
  mass density: 1483.83 ± 1.1 kg/m3
[1]; x1 = 0.9106
  mass density: 1487.37 ± 1.1 kg/m3
[1]; x1 = 0.9204
  mass density: 1490.55 ± 1.1 kg/m3
[1]; x1 = 0.9304
  mass density: 1493.65 ± 1.2 kg/m3
[1]; x1 = 0.9403
  mass density: 1496.79 ± 1.2 kg/m3
[1]; x1 = 0.9508
  mass density: 1500.13 ± 1.2 kg/m3
[1]; x1 = 0.9604
  mass density: 1503.16 ± 1.2 kg/m3
[1]; x1 = 0.971
  mass density: 1506.5 ± 1.2 kg/m3
[1]; x1 = 0.98
  mass density: 1509.57 ± 1.2 kg/m3
[1]; x1 = 0.99
  mass density: 1512.86 ± 1.2 kg/m3
[1]; x1 = 0.9948
  mass density: 1514.59 ± 1.2 kg/m3
[1]; x1 = 1
  mass density: 1516.5 ± 1.2 kg/m3
[2]; x1 = 0.05
  excess molar enthalpy: 0.0487 ± 0.00112 kcal/mol
[2]; x1 = 0.1
  excess molar enthalpy: 0.0727 ± 0.00151 kcal/mol
[2]; x1 = 0.2
  excess molar enthalpy: 0.1 ± 0.00191 kcal/mol
[2]; x1 = 0.3
  excess molar enthalpy: 0.119 ± 0.0022 kcal/mol
[2]; x1 = 0.4001
  excess molar enthalpy: 0.133 ± 0.00239 kcal/mol
[2]; x1 = 0.5
  excess molar enthalpy: 0.144 ± 0.00263 kcal/mol
[2]; x1 = 0.5501
  excess molar enthalpy: 0.149 ± 0.00263 kcal/mol
[2]; x1 = 0.6001
  excess molar enthalpy: 0.154 ± 0.00263 kcal/mol
[2]; x1 = 0.6501
  excess molar enthalpy: 0.153 ± 0.00263 kcal/mol
[2]; x1 = 0.7001
  excess molar enthalpy: 0.153 ± 0.00263 kcal/mol
[2]; x1 = 0.75
  excess molar enthalpy: 0.151 ± 0.00263 kcal/mol
[2]; x1 = 0.8001
  excess molar enthalpy: 0.146 ± 0.00263 kcal/mol
[2]; x1 = 0.85
  excess molar enthalpy: 0.137 ± 0.00239 kcal/mol
[2]; x1 = 0.9
  excess molar enthalpy: 0.121 ± 0.00225 kcal/mol
[2]; x1 = 0.95
  excess molar enthalpy: 0.0872 ± 0.00172 kcal/mol
[2]; x1 = 0.975
  excess molar enthalpy: 0.0582 ± 0.00127 kcal/mol

## COCCOCCO [2-(2-methoxyethoxy)ethanol] + COC(F)(F)C(F)(F)C(F)(F)C(F)(F)F
[1]; x2 = 0
  mass density: 1015.6 ± 0.22 kg/m3
[1]; x2 = 0.02479
  mass density: 1031.94 ± 0.25 kg/m3
[1]; x2 = 0.04975
  mass density: 1048.37 ± 0.28 kg/m3
[1]; x2 = 0.09963
  mass density: 1080.8 ± 0.35 kg/m3
[1]; x2 = 0.1498
  mass density: 1112.38 ± 0.41 kg/m3
[1]; x2 = 0.1999
  mass density: 1142.86 ± 0.48 kg/m3
[1]; x2 = 0.2495
  mass density: 1172.17 ± 0.54 kg/m3
[1]; x2 = 0.2996
  mass density: 1200.75 ± 0.6 kg/m3
[1]; x2 = 0.3996
  mass density: 1254.72 ± 0.71 kg/m3
[1]; x2 = 0.4994
  mass density: 1304.76 ± 0.82 kg/m3
[1]; x2 = 0.5984
  mass density: 1351.61 ± 0.89 kg/m3
[1]; x2 = 0.699
  mass density: 1396.09 ± 0.97 kg/m3
[1]; x2 = 0.7499
  mass density: 1417.68 ± 1 kg/m3
[1]; x2 = 0.7998
  mass density: 1438.09 ± 1.1 kg/m3
[1]; x2 = 0.85
  mass density: 1458.09 ± 1.1 kg/m3
[1]; x2 = 0.8999
  mass density: 1477.55 ± 1.1 kg/m3
[1]; x2 = 0.9501
  mass density: 1496.84 ± 1.2 kg/m3
[1]; x2 = 0.9749
  mass density: 1506.46 ± 1.2 kg/m3
[2]; x2 = 0.05006
  excess molar enthalpy: 0.0519 ± 0.00117 kcal/mol
[2]; x2 = 0.1001
  excess molar enthalpy: 0.0713 ± 0.00148 kcal/mol
[2]; x2 = 0.2002
  excess molar enthalpy: 0.0873 ± 0.00172 kcal/mol
[2]; x2 = 0.3003
  excess molar enthalpy: 0.0967 ± 0.00186 kcal/mol
[2]; x2 = 0.4003
  excess molar enthalpy: 0.102 ± 0.00194 kcal/mol
[2]; x2 = 0.4503
  excess molar enthalpy: 0.103 ± 0.00196 kcal/mol
[2]; x2 = 0.5003
  excess molar enthalpy: 0.103 ± 0.00196 kcal/mol
[2]; x2 = 0.5503
  excess molar enthalpy: 0.103 ± 0.00198 kcal/mol
[2]; x2 = 0.6003
  excess molar enthalpy: 0.103 ± 0.00196 kcal/mol
[2]; x2 = 0.6503
  excess molar enthalpy: 0.102 ± 0.00196 kcal/mol
[2]; x2 = 0.7003
  excess molar enthalpy: 0.101 ± 0.00194 kcal/mol
[2]; x2 = 0.8002
  excess molar enthalpy: 0.0953 ± 0.00184 kcal/mol
[2]; x2 = 0.9001
  excess molar enthalpy: 0.0773 ± 0.00158 kcal/mol
[2]; x2 = 0.9501
  excess molar enthalpy: 0.055 ± 0.00122 kcal/mol

## COC(F)(F)C(F)(F)C(F)(F)C(F)(F)F [1-methoxy-nonafluorobutane] + CCCCOCCO
[1]; x1 = 0.02507
  mass density: 915.04 ± 0.34 kg/m3
[1]; x1 = 0.05002
  mass density: 932.88 ± 0.3 kg/m3
[1]; x1 = 0.1001
  mass density: 969.14 ± 0.24 kg/m3
[1]; x1 = 0.1499
  mass density: 1004.19 ± 0.21 kg/m3
[1]; x1 = 0.1998
  mass density: 1038.73 ± 0.28 kg/m3
[1]; x1 = 0.2497
  mass density: 1072.68 ± 0.35 kg/m3
[1]; x1 = 0.2995
  mass density: 1105.83 ± 0.43 kg/m3
[1]; x1 = 0.3499
  mass density: 1138.71 ± 0.5 kg/m3
[1]; x1 = 0.41
  mass density: 1176.96 ± 0.58 kg/m3
[1]; x1 = 0.4499
  mass density: 1201.93 ± 0.64 kg/m3
[1]; x1 = 0.5155
  mass density: 1242.24 ± 0.72 kg/m3
[1]; x1 = 0.5499
  mass density: 1262.86 ± 0.74 kg/m3
[1]; x1 = 0.5999
  mass density: 1292.53 ± 0.79 kg/m3
[1]; x1 = 0.65
  mass density: 1321.64 ± 0.84 kg/m3
[1]; x1 = 0.6999
  mass density: 1350.17 ± 0.89 kg/m3
[1]; x1 = 0.7499
  mass density: 1378.23 ± 0.94 kg/m3
[1]; x1 = 0.8
  mass density: 1405.94 ± 0.99 kg/m3
[1]; x1 = 0.8502
  mass density: 1433.58 ± 1 kg/m3
[1]; x1 = 0.9002
  mass density: 1461.09 ± 1.1 kg/m3
[1]; x1 = 0.95
  mass density: 1488.03 ± 1.1 kg/m3
[1]; x1 = 0.9749
  mass density: 1501.9 ± 1.2 kg/m3
[1]; x1 = 1
  mass density: 1516.5 ± 1.2 kg/m3
[2]; x1 = 0.05001
  excess molar enthalpy: 0.04 ± 0.00098 kcal/mol
[2]; x1 = 0.1
  excess molar enthalpy: 0.0726 ± 0.00151 kcal/mol
[2]; x1 = 0.2
  excess molar enthalpy: 0.122 ± 0.00225 kcal/mol
[2]; x1 = 0.3
  excess molar enthalpy: 0.157 ± 0.00287 kcal/mol
[2]; x1 = 0.4001
  excess molar enthalpy: 0.18 ± 0.00311 kcal/mol
[2]; x1 = 0.5001
  excess molar enthalpy: 0.195 ± 0.00335 kcal/mol
[2]; x1 = 0.5501
  excess molar enthalpy: 0.2 ± 0.00359 kcal/mol
[2]; x1 = 0.6001
  excess molar enthalpy: 0.202 ± 0.00359 kcal/mol
[2]; x1 = 0.6501
  excess molar enthalpy: 0.203 ± 0.00359 kcal/mol
[2]; x1 = 0.7
  excess molar enthalpy: 0.2 ± 0.00359 kcal/mol
[2]; x1 = 0.75
  excess molar enthalpy: 0.194 ± 0.00335 kcal/mol
[2]; x1 = 0.8
  excess molar enthalpy: 0.184 ± 0.00311 kcal/mol
[2]; x1 = 0.85
  excess molar enthalpy: 0.168 ± 0.00287 kcal/mol
[2]; x1 = 0.9
  excess molar enthalpy: 0.142 ± 0.00263 kcal/mol
[2]; x1 = 0.95
  excess molar enthalpy: 0.1 ± 0.00191 kcal/mol
[2]; x1 = 0.975
  excess molar enthalpy: 0.0629 ± 0.00134 kcal/mol

## COCCO [2-methoxyethan-1-ol]
[3]
  mass density: 960.01 ± 0.25 kg/m3

## CCOCCO [2-ethoxyethan-1-ol]
[3]
  mass density: 924.92 ± 0.32 kg/m3

From the NIST ThermoML archive (doi:10.1016/j.jct.2005.02.011)
